# Reference: US20250114367A1, “METHOD OF TREATING HAIR LOSS DISORDERS” (Sun Pharmaceutical Industries, Inc., priority 2023, published 2025)
# System: adult subjects with moderate to severe AA
# Test: Phase III trial: Hair Quality Patient Reported Outcome (QPRO)
# Assay type: in vivo, human
# Details: Weeks 12, 16, 20, and 24
# Method: A Phase III trial was conducted to assess the efficacy and safety of CTP-543 in adult subjects with moderate to severe AA. Approximately 440 adult male and female subjects 18 to 65 years of age, inclusive, with moderate to severe AA participated in the study. Subjects with definitive diagnosis of AA, and at least 50% hair loss, as defined by a SALT score ≥50, who met all of the inclusion criteria and none of the exclusion criteria participated in the study.
# The Screening Period lasted up to 28 days prior to initiation of study drug. […] Randomization was stratified by scalp hair loss into 1 of the following 2 categories: 1) partial scalp hair loss (SALT ≥50 and <95), 2) complete or near complete scalp hair loss (SALT ≥95).
# Additional secondary efficacy endpoints included the following: • Relative change in SALT scores from baseline at Weeks 4, 8, 12, 16, 20, and 24. • Percentage of responders (defined as “much improved” or “very much improved”) using the Clinical Global Impression of Improvement (CGI-I) at Weeks 12, 16, 20, and 24. • Percentage of responders (defined as “much improved” or “very much improved”) using the Patient Global Impression of Improvement (PGI-I) at Weeks 12, 16, 20, and 24. • Change from baseline in the Clinical Global Impression of Severity (CGI-S) at Weeks 12, 16, 20, and 24. • Change from baseline in the Patient Global Impression of Severity (PGI-S) at Weeks 12, 16, 20, and 24. • Change from baseline on the Brigham Eyebrow Tool for Alopecia (BETA) score at Weeks 12 and 24. • Change from baseline on the Brigham Eyelash Tool for Alopecia (BELA) score at Weeks 12 and 24. • Percentage of subjects achieving at least a 75% relative reduction in SALT score from baseline at Weeks 12 and 24. • Percentage of subjects achieving at least a 90% relative reduction in SALT score from baseline at Weeks 12 and 24. • Percentage of responders (defined as “satisfied” or “very satisfied”) on the SPRO scale at Weeks 12, 16, and 20. • Change from baseline in the SPRO scale at Weeks 12, 16, 20, and 24. • Percentage of subjects achieving a ≥2-point change from baseline in the SPRO scale at Weeks 12, 16, 20, and 24. • Change from baseline on the individual items of the Hair Quality Patient Reported Outcome (QPRO) scale at Weeks 12, 16, 20, and 24. • Change from baseline in the depression scale of the Hospital Anxiety and Depression Scale (HADS) at Week 24. • Change from baseline in the anxiety scale of the HADS at Week 24. • Percentage of subjects achieving an absolute SALT score of ≤20 at Week 4. • Percentage of subjects achieving an absolute SALT score of ≤10 at Week 24
# The individual items of satisfaction with thickness of hair coverage, satisfaction with evenness of hair coverage, satisfaction with eyebrows, and satisfaction with eyelashes are rated on a scale of 1 to 5. A decrease from baseline in the QPRO score represents improvement. For each item and time point, treatment group differences favored CTP-543 over placebo.
structure (smiles),measurement,setting,value
"[2H]C1([2H])C([C@@H](CC#N)n2cc(-c3ncnc4[nH]ccc34)cn2)C([2H])([2H])C([2H])([2H])C1([2H])[2H] [CTP-543, (R)-3-(4-(7H-pyrrolo[2,3-d]pyrimidin-4-yl)-1H-pyrazol-1-yl)-3-(cyclopentyl-2,2,3,3,4,4,5,5-d8) propanenitrile]","QPRO satisfaction with evenness of hair coverage, treatment group difference from placebo",8 mg BID,−1.3 to −0.9
same,"QPRO satisfaction with eyebrows, treatment group difference from placebo",8 mg BID,−1.2 to −1.0
same,"QPRO satisfaction with eyelashes, treatment group difference from placebo",8 mg BID,−1.2 to −0.9
same,"QPRO satisfaction with thickness of hair coverage, treatment group difference from placebo",8 mg BID,−1.3 to −1.0
same,"QPRO satisfaction with evenness of hair coverage, treatment group difference from placebo",12 mg BID,−1.5 to −1.0
same,"QPRO satisfaction with eyebrows, treatment group difference from placebo",12 mg BID,−1.5 to −1.1
same,"QPRO satisfaction with eyelashes, treatment group difference from placebo",12 mg BID,−1.4 to −0.9
same,"QPRO satisfaction with thickness of hair coverage, treatment group difference from placebo",12 mg BID,−1.6 to −1.1
